Data set [1] has as its system Staphylococcus aureus. The following applies: 24 h.
Data set [2] relates to Candida albicans. The note with it: 24 h.
Data set [3] deals with Candida albicans 27700 (fluconazole-resistant clinical isolate). The note with it: 27700 (fluconazole-resistant clinical isolate, 24 h).
The subject of data set [4] is C. albicans cells. The class given is cell-based, Candida albicans. The protocol:
(§1) At the time points 5 min, 6 h and 24 h, aliquots were taken and plated in appropriate dilutions onto PDA plates in duplicates to stimulate the growth of viable cells. The colony-forming units (CFU) were counted after incubation at 30 °C for 24 h. […] To determine the efficacy of the TB peptide analogs on sessile C. albicans cells, biofilm formation was induced by adding 100 μL of C. albicans (1 × 10^6 cells mL^−1) in 0.05 × PDB to each well of a 96-well, flat-bottom microtiter plate (Nunclon Delta, Thermo Fisher Scientific, Waltham, MA, USA) and incubating for 24 h at 30 °C. The formed biofilm was then evaluated microscopically for cell attachment and pseudo-hyphae formation before proceeding with peptide application. The serially diluted TB peptide analogs (in 0.05 × PDB) were added to the biofilm in 100 μL aliquots to reach a final volume of 200 μL per well. For the positive control, 10 µg mL^−1 Amphotericin B (Sigma-Aldrich, St. Louis, MO, USA) was used, while 0.05 × PDB was added to the growth control. After further incubation for 24 h at 30 °C, the biofilm was disrupted by vigorous pipetting, and 20 µL of the detached cells were mixed with 80 µL of 0.05 × PDB. […] The effectiveness of the TB peptide analogs to reduce biofilm formation was calculated by comparing the number of CFU at different peptide concentrations with that of the untreated growth control. […]

The test system of data set [5] is Candida parapsilosis. The note with it: 24 h.
The nature of data set [6]: in vitro. The format is cell-based. The note with it: human, 3D Phenion OS-REp reconstructed epidermis model.
Procedure: The TB peptide analogs were tested for their skin irritation potential in vitro using the three-dimensional (3D) Phenion® open-source reconstructed epidermis model (Henkel, Düsseldorf, Germany) with slight adaptation from Groeber et al. and Mewes et al. [22, 23] and the test guidelines 439 of the Organization for Economic Cooperation and Development (OECD) [24]. In brief, the epidermal tissue models were equilibrated in 6-well plates ([…] , Hamburg, Germany) with 1.5 mL of Phenion® OS_REp air-liquid interface (ALI) medium (Henkel, Düsseldorf, Germany) for 24 h at 37 °C, 5% (v/v) CO2. Then, the medium was replaced by fresh medium and 25 μL Dulbecco's phosphate-buffered saline (D-PBS) containing 50 μg of the peptide, respectively, was dispensed directly on top of the models and spread gently over the surface with sterile glass applicators. […] All samples and controls were prepared in triplicates. After incubation at 25 °C for 35 min, each model was thoroughly dipped six times in 1 L of D-PBS. […] From each tissue sample, 200 μL of the formazan extraction solution were transferred in duplicates to a 96-well microtiter plate and the optical density was measured in a multimode plate reader (FLUOstar Omega, BMG Labtech, Ortenberg, Germany) at a wavelength of 550 nm. The relative metabolic activity was calculated from two replicates per tissue and three tissues per assay.
The subject of data set [7] is Candida glabrata. The following applies: 24 h.
Data set [8] relates to C. albicans. Put plainly: Broth microdilution, impact of protease inactivation conditions (growth %). The format is cell-based, Candida albicans. The following applies: 0.125 µM protease alone + 100 °C, 15 min. For orientation: Dilution methods test growth across graded concentrations, often in twofold steps.
Data set [9] relates to IL-1α. The data set can be described thus: Release of proinflammatory cytokine IL-1α from Phenion OS-REp model (ELISA). The following applies: culture medium 24 h after 35 min exposure; 50 μg peptide per model (SDS 5% w/v). In general terms: In an ELISA, binding on a coated surface is turned into a signal by an enzyme label.
The subject of data set [10] is sessile C. albicans cells (biofilm). The data set can be described thus: Survival of sessile cells of a 24 h old biofilm (CFU plating). The class given is cell-based, Candida albicans. The following applies: 10 µg mL^−1, 24 h exposure; untreated growth control 100%. The protocol: as §1
The test system of data set [11] is Candida albicans. The data set can be described thus: microbe, parasite or virus in culture.

Like-named read-outs stand apart in the source and are kept apart here. Square brackets hold non-standard residues; d marks the D form. Peptide text beside a SMILES is read from it.

Usually IC90 stands for the concentration needed for an effect of 90%. Low readings indicate an effect from little substance, high ones a need for much substance. By viability is commonly meant a per cent measure of how many cells are alive, often set against a control.

For the compound `CC[C@H](C)[C@H](NC(=O)[C@@H]1CCCN1C(=O)[C@H](CC(C)C)NC(=O)[C@H](CC(C)C)NC(=O)[C@H](CCCCN)NC(=O)[C@H](CCCCN)NC(=O)[C@H](CCCCN)NC(=O)[C@@H](N)CCCCN)C(=O)N[C@H](C(=O)N[C@@H](CC(N)=O)C(=O)N[C@@H](CC(C)C)C(=O)N[C@@H](CC(C)C)C(=O)N[C@@H](CO)C(=O)N[C@@H](CC(C)C)C(=O)N[C@@H](CC(C)C)C(N)=O)C(C)C` [TB_KKG6K^scrambled] (H-KKKKLLPIVNLLSLL-NH2; N-terminus assumed), the IC90 is 7200 nM in data set [1] and 1800 nM in [2].
For `CC[C@H](C)[C@H](NC(=O)[C@@H]1CCCN1C(=O)[C@H](CC(C)C)NC(=O)[C@H](CC(C)C)NC(=O)[C@H](CCCCN)NC(=O)[C@@H](N)CCCCN)C(=O)N[C@H](C(=O)N[C@@H](CCCCN)C(=O)N[C@@H](CC(N)=O)C(=O)N[C@@H](CC(C)C)C(=O)N[C@@H](CC(C)C)C(=O)N[C@@H](CCCCN)C(=O)N[C@@H](CO)C(=O)N[C@@H](CC(C)C)C(=O)N[C@@H](CC(C)C)C(N)=O)C(C)C` [TB_KKG6K] (H-KKLLPIVKNLLKSLL-NH2), the IC90 in data set [1] is 3600 nM; in data set [2], 1800 nM; in [3], 1800 nM; in [5], 1800 nM; in data set [7], 1800 nM. The “killing (CFU)” value in data set [4] (6 h) came out at 100%. Besides, the viability at 35 min, 2000 µg/mL in data set [6] came out at 94.2 ± 2.9%.
On to Chymotrypsin, for which the “Growth [%]” value in data set [8] turned out to be 76.1 ± 6.9%.
For the compound `CCCCCCCCCCCCOS(=O)(=O)[O-].[Na+]` [5% SDS, sodium dodecyl sulfate], the “IL-1α” value in data set [9] amounted to 199.2 ± 47.7 pg/mL.
With `C[C@@H]1[C@H](O)[C@@H](C)/C=C/C=C/C=C/C=C/C=C/C=C/C=C/[C@H](O[C@@H]2O[C@H](C)[C@@H](O)[C@H](N)[C@@H]2O)C[C@@H]2O[C@](O)(C[C@@H](O)C[C@@H](O)[C@H](O)CC[C@@H](O)C[C@@H](O)CC(=O)O[C@H]1C)C[C@H](O)[C@H]2C(=O)O` [Amphotericin B], the “CFU [%]” value in data set [10] is listed as 0 ± 0 %. Also, the figures for the IC90 in data set [11] and in [11] (24 h) were 0.055 µg/mL and 60 nM, respectively.
For `CC[C@H](C)[C@H](NC(=O)[C@@H]1CCCN1C(=O)[C@H](CC(C)C)NC(=O)[C@H](CC(C)C)NC(=O)[C@@H](CCCCN)NC(=O)[C@H](N)CCCCN)C(=O)N[C@H](C(=O)N[C@H](CCCCN)C(=O)N[C@@H](CC(N)=O)C(=O)N[C@@H](CC(C)C)C(=O)N[C@@H](CC(C)C)C(=O)N[C@H](CCCCN)C(=O)N[C@@H](CO)C(=O)N[C@@H](CC(C)C)C(=O)N[C@@H](CC(C)C)C(N)=O)C(C)C` [D-Lys_TB_KKG6K] (H-[dK][dK]LLPIV[dK]NLL[dK]SLL-NH2), the IC90 in data set [1] amounted to 14400 nM; in data set [2], 1800 nM; in data set [3], 1800 nM; in [5] it was 1800 nM; in data set [7], 1800 nM. Also, the “killing (CFU)” value in [4] (24 h) is given as 100%. Further, in data set [6], the viability at 35 min, 2000 µg/mL is 91.4 ± 2.9%.
